Assay results: US6169181A, “Compounds useful to treat retroviral infections” (Pharmacia & Upjohn Company, priority 1998, dated 2001)
Where “and” joins values, the source holds several entries; their conditions need not be identical. Equal entries are not always repeated. Where two headings read alike, the source gives them in different places.

Columns and labels:
HIV-1 protease [1] = molecular target: T1, HIV-1 protease (Human immunodeficiency virus type 1 group M subtype B, UniProt P04585); assay: biochemical; conditions: read-out: Protease % Inhib
Procedure, shortened: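 A substrate biotinylated at the N-terminal arginine and FITC-labelled at the C-terminal lysine was incubated with HIV-1 protease (10 μl of 0.1 μM) and compound for 1 h in the dark at room temperature. Buffer was 0.1 M sodium acetate pH 5.5, 1.0 M NaCl, 0.05% NP-40. Labelled product was separated from substrate using streptavidin beads and filtration, and the fluorescence gave percent inhibition.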

HIV-1 protease [2] = molecular target: T1, HIV-1 protease; assay: biochemical; conditions: read-out: HIV Protease FITC Assay Ki
Procedure, shortened: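 Biotinylated, FITC-labelled peptide substrate cleaved in 0.1 M sodium acetate pH 5.5, 1.0 M NaCl, 0.05% NP-40, room temperature. Filtered labelled product read by fluorescence; nonlinear least-squares fit.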

| Compound | inhibition at 0.123 µM (HIV-1 protease [1]) [%] | inhibition at 0.37 µM (HIV-1 protease [1]) [%] | inhibition at 1.1 µM (HIV-1 protease [1]) [%] | inhibition at 3.3 µM (HIV-1 protease [1]) [%] | inhibition at 10 µM (HIV-1 protease [1]) [%] | inhibition at 30 µM (HIV-1 protease [1]) [%] | Ki (HIV-1 protease [2]) [nM] | inhibition at 0.123 µM (HIV-1 protease [1]; Table I, Dose 0.123 μM) [%] | inhibition at 0.37 µM (HIV-1 protease [1]; Table I, Dose 0.370 μM) [%] | inhibition at 1.1 µM (HIV-1 protease [1]; Table I, Dose 1.100 μM) [%] | inhibition at 3.3 µM (HIV-1 protease [1]; Table I, Dose 3.300 μM) [%] | inhibition at 10 µM (HIV-1 protease [1]; Table I, Dose 10.000 μM) [%] | inhibition at 30 µM (HIV-1 protease [1]; Table I, Dose 30.000 μM) [%] | Ki (HIV-1 protease [2]; Table I) | inhibition at 0.87 µM (HIV-1 protease [1]; Table I, Dose 0.870 μM) [%] | inhibition at 100 µM (HIV-1 protease [1]; Table I, Dose 100.000 μM) [%] |
| --- | --- | --- | --- | --- | --- | --- | --- | --- | --- | --- | --- | --- | --- | --- | --- | --- |
| CCCC1(CCc2ccccc2)CC(O)=C(C(CC)c2cccc(NS(=O)(=O)c3cccc4cccnc34)c2)C(=O)O1 (centres unmarked) [Example 42, N-[3-[1-(4-hydroxy-2-oxo-6-phenethyl-6-propyl-5,6-dihydro-2H-pyran-3-yl)-propyl]-phenyl]-8-quinolinesulfonamide] | 86.2 | 103 | 98.3 | 102 | 91.4 | 76.1 | 3.1 | – | – | – | – | – | – | – | – | – |
| CCCC1(CCC)CC(O)=C(C(CC)c2cccc(NS(=O)(=O)c3cccc4cccnc34)c2)C(=O)O1 (centres unmarked) [Example 43, N-[3-[1-(4-hydroxy-2-oxo-6,6-dipropyl-5,6-dihydro-2H-pyran-3-yl)-propyl]-phenyl]-8-quinolinesulfonamide] | – | – | – | – | – | – | – | 85.6 | 99 | 95.7 | 96.7 | 102 | 85.6 | 3.65 nM | – | – |
| CCCC1(CCC)CC(O)=C(C(CC)c2cccc(NS(=O)(=O)c3cn(C)cn3)c2)C(=O)O1 (centres unmarked) [Example 44, N-[3-[1-(4-hydroxy-2-oxo-6,6-dipropyl-5,6-dihydro-2H-pyran-3-yl)-propyl]-phenyi]-1-methyl-1H-imidazolesulfonamide] | – | – | – | – | – | – | – | 98.4 | 114 | 120 | 113 | 102 | 80 | 1.8 nM | – | – |
| CCCC1(CCC)CC(O)=C(C(CC)c2cccc(NS(=O)(=O)c3ccc(F)cc3)c2)C(=O)O1 (centres unmarked) [Example 45, 4-Fluoro-N-[3-[1-(4-hydroxy-2-oxo-6,6-dipropyl-5,6-dihydro-2H-pyran-3-yl)-propyl]-phenyl]-benzenesulfonamide] | – | – | – | – | – | – | – | 82.2 | 94.4 | 101 | 103 | 89.8 | 67.5 | 4.78 nM | – | – |
| CCCC1(CCC)CC(O)=C(C(CC)c2cccc(NS(=O)(=O)c3ccc(C#N)cc3)c2)C(=O)O1 (centres unmarked) [Example 46, 4-Cyano-N-[3-[1-(4-hydroxy-2-oxo-6,6-dipropyl-5,6-dihydro-2H-pyran-3-yl)-propyl]-phenyl]-benzenesulfonamide] | – | – | – | – | – | – | – | 85.9 | 99.2 | 103 | 97.6 | 91.5 | 74.1 | 2.92 nM | – | – |
| CCC(C1=C(O)CC(CC(C)C)(CC(C)C)OC1=O)c1cccc(NS(=O)(=O)c2cn(C)cn2)c1 (centres unmarked) [Example 47, N-[3-[1-(4-hydroxy-6,6-diisobutyl-2-oxo-5,6-dihydro-2H-pyran-3-yl)-propyl]-phenyl]-1-methyl-1H-imidazole-4-sulfonamide] | – | – | – | – | – | – | – | 66.3 | – | 94.7 | 101 | 98.7 | 84.5 | 3 nM and 2.98 nM | 86.8 | – |
| CCCC1(CCC)CC(O)=C(C(c2cccc(NS(=O)(=O)c3cn(C)cn3)c2)C2CC2)C(=O)O1 (centres unmarked) [Example 48] | – | – | – | – | – | – | – | 111 | 104 | 110 | 89.3 | 111 | 105 | 0.52 nM | – | – |
| CCCC1(CCC)CC(O)=C(C(c2cccc(NS(=O)(=O)c3cccc4cccnc34)c2)C2CC2)C(=O)O1 (centres unmarked) [Example 49] | – | – | – | – | – | – | – | 111 | 120 | 120 | 106 | 108 | 112 | 0.96 nM | – | – |
| CCCC1(CCC)CC(O)=C(C(c2cccc(NS(=O)(=O)c3ccc(C#N)cc3)c2)C2CC2)C(=O)O1 (centres unmarked) [Example 50] | – | – | – | – | – | – | – | 101 | 108 | 113 | 112 | 101 | 84.8 | 1.78 nM | – | – |
| CCCC1(CCC)CC(O)=C(C(c2cccc(NS(=O)(=O)c3ccc(F)cc3)c2)C2CC2)C(=O)O1 (centres unmarked) [Example 51, 4-Fluoro-N-[3-[1-(4-hydroxy-2-oxo-6,6-dipropyl-5,6-dihydro-2H-pyran-3-yl)-cyclopropylmethyl]-phenyl]-benzenesulfonamide] | – | – | – | – | – | – | – | 98.7 | 104 | 105 | 101 | 95.1 | 79.7 | 2.66 nM | – | – |
| CCCC1(CCc2ccccc2)CC(O)=C(C(c2cccc(NS(=O)(=O)c3ccc(C#N)cc3)c2)C2CC2)C(=O)O1 (centres unmarked) [Example 58] | – | – | – | – | – | – | – | 64.9 | 83.7 | 94.2 | 95.9 | 100 | 89.8 | 3.8 nM | – | – |
| CCCC1(CCc2ccccc2)CC(O)=C(C(c2cccc(NS(=O)(=O)c3ccc(F)cc3)c2)C2CC2)C(=O)O1 (centres unmarked) [Example 59] | – | – | – | – | – | – | – | 76.7 | 90.5 | 102 | 99.9 | 105 | 102 | 3.5 nM | – | – |
| CCCC1(CCc2ccccc2)CC(O)=C(C(c2cccc(NS(=O)(=O)c3cccc4cccnc34)c2)C2CC2)C(=O)O1 (centres unmarked) [Example 60, N-[3-[1-(4-Hydroxy-2-oxo-6-phenethyl-6-propyl-5,6-dihydro-2H-pyran-3-yl)-cyclopropylmethyl]-phenyl]-8-quinolinesulfonamide] | – | – | – | – | – | – | – | 73 | 94.3 | 101 | 101 | 106 | 107 | 0.95 nM | – | – |
| CCCC1(CCc2ccccc2)CC(O)=C(C(c2cccc(NS(=O)(=O)c3cn(C)cn3)c2)C2CC2)C(=O)O1 (centres unmarked) [Example 61] | – | – | – | – | – | – | – | 86.8 | 95.5 | 103 | 103 | 106 | 104 | 0.71 nM | – | – |
| Cn1cnc(S(=O)(=O)Nc2cccc(C(C3=C(O)CC(CCc4ccccc4)(CCc4ccccc4)OC3=O)C3CC3)c2)c1 (centres unmarked) [Example 62] | – | – | – | – | – | – | – | 76.2 | 85.2 | 85.3 | 78.7 | 79.7 | 79.4 | 0.8 nM | – | – |
| CCCC1(CCc2ccccc2)CC(O)=C(C(CC)c2cccc(NS(=O)(=O)c3ccc(F)cc3)c2)C(=O)O1 (centres unmarked) [Example 93A, 4-Fluoro-N-[3-[1-(4-hydroxy-2-oxo-6-phenethyl-6-propyl-5,6-dihydro-2H-pyran-3-yl)-propyl]-phenyl]-benzenesulfonamide] | 59.5 | 90.4 | 104 | 109 | 109 | 96.6 | 6.06 | – | – | – | – | – | – | – | – | – |
| O=c1oc(C(CC2CC2)CC2CC2)cc(O)c1C(c1cccc(NS(=O)(=O)c2ccc(F)cc2)c1)C1CC1 (centres unmarked) [Example 94, N-(3-{Cyclopropyl-[6-(2-cyclopropyl-1-cyclopropylmethyl-ethyl)-4-hydroxy-2-oxo-2H-pyran-3-yl]-methyl}-phenyl)-4-fluoro-benzenesulfonamide] | 75.8 | 107 | 107 | 105 | 109 | 111 | 16.4 | – | – | – | – | – | – | – | – | – |
| Cn1cnc(S(=O)(=O)Nc2cccc(C(c3c(O)cc(C(CC4CC4)CC4CC4)oc3=O)C3CC3)c2)c1 (centres unmarked) [Example 97, N-(3-{Cyclopropyl-[6-(2-cyclopropyl-1-cyclopropylmethyl-ethyl)-4-hydroxy-2-oxo-2H-pyran-3-yl]-methyl}-phenyl)-1-methyl-1H-imidazole-4-sulfonamide] | 105 | 106 | 110 | 107 | 116 | 115 | 1 | – | – | – | – | – | – | – | – | – |
| O=c1oc(C(CC2CC2)CC2CC2)cc(O)c1C(c1cccc(NS(=O)(=O)c2ccccn2)c1)C1CC1 (centres unmarked) [Example 99, N-(3-{Cyclopropyl-[6-(2-cyclopropyl-1-cyclopropylmethyl-ethyl)-4-hydroxy-2-oxo-2H-pyran-3-yl]-methyl}-phenyl)-2-pyridine-sulfonamide] | – | – | – | – | – | – | – | 85.7 | 102 | 108 | 100 | 107 | 103 | 0.66 nM | – | – |
| Cn1ccnc1S(=O)(=O)Nc1cccc(C(c2c(O)cc(C(CC3CC3)CC3CC3)oc2=O)C2CC2)c1 (centres unmarked) [Example 100, N-(3-{Cyclopropyl-[6-(2-cyclopropyl-1-cyclopropylmethyl-ethyl)-4-hydroxy-2-oxo-2H-pyran-3-yl]-methyl}-phenyl)-1-methyl-1H-imidazole-2-sulfonamide] | – | – | – | – | – | – | – | 103 | 101 | 91 | 96.5 | – | 101 | 0.73 nM | – | 101 |
